Source: ChEMBL document CHEMBL1126478, “The syntheses and binding affinities of tools for the study of angiotensin AT2 receptors” (Bioorg Med Chem Lett, 1993)
Calls of active or inactive are those of the source.

What was measured:
[1] = target: T1, Type-1 angiotensin II receptor (Homo sapiens) (UniProt P30556); experiment: The compound was evaluated for the inhibition of binding of [3H]-DUP 753 to AT1 receptor at 0.1 uM; not active (</= 10% Inhibition)
T1 sequence (whole entry): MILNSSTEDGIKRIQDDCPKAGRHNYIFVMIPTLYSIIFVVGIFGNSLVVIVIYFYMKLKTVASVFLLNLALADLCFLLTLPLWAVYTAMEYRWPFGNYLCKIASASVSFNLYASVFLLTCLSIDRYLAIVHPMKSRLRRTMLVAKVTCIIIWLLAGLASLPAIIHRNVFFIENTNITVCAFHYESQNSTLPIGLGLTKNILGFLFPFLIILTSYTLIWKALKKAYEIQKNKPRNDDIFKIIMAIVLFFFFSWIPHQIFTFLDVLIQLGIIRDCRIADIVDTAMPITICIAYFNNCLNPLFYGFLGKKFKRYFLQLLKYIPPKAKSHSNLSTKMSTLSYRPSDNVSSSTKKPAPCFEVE

[2] = target: T2, Type-2 angiotensin II receptor (Homo sapiens, UniProt P50052); experiment: The compound was evaluated for the inhibition of binding of [125I]-CGP 42112A to AT2 receptor
T2 sequence (P50052 whole entry): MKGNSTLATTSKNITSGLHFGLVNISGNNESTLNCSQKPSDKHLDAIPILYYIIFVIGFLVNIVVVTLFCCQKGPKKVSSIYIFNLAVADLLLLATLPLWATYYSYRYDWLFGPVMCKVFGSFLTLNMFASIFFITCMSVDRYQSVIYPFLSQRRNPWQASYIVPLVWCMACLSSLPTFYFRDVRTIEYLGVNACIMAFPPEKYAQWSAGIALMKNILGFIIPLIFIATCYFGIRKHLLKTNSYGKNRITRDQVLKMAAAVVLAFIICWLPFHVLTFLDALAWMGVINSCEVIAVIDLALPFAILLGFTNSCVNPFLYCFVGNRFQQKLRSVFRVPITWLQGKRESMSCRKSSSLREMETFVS

[3] = target: T1, Type-1 angiotensin II receptor (Homo sapiens); experiment: The compound was evaluated for the inhibition of binding of [3H]-DUP 753 to AT1 receptor at 1 uM; not active (</= 10% Inhibition)

inhibition [1]	IC50 [2] [nM]	inhibition [3]	SMILES
inactive	–	–	Cc1cc(Cn2cnc3c2C[C@@H](C(=O)O)N(C(=O)C(c2ccccc2)c2ccccc2)C3)ccc1N(C)C
inactive	7	–	Cc1cc(Cn2cnc3c2C[C@@H](C(=O)O)N(C(=O)C(c2ccccc2)c2ccccc2)C3)ccc1NCCCCCCNC(=O)[C@@H](N)CCCCNC(=O)CCCC[C@@H]1SC[C@@H]2NC(=O)N[C@@H]21
–	3.6	inactive	Cc1cc(Cn2cnc3c2C[C@@H](C(=O)O)N(C(=O)C(c2ccccc2)c2ccccc2)C3)ccc1NCCCCCCNC(=O)CCNc1ccc([N+](=O)[O-])c2nonc12
inactive	5.1	–	Cc1cc(Cn2cnc3c2C[C@@H](C(=O)O)N(C(=O)C(c2ccccc2)c2ccccc2)C3)cc(I)c1O
